Experimental data reported in patent US4010264A, “7-[3-Substituted isoxazol-5-yl]-acetamido-cephalosporanic acids and their anti-bacterial use” (Koninklijke Nederlandsche Gist-en Spiritusfabriek N.V., priority 1970, dated 1977).
≈ marks a conversion by molar mass, not a printed value. Counter-ions that a name gives are not always drawn. Like-named read-outs stand apart in the source and are kept apart here.

Key:
[1] = test system: Brucella melitensis A488; assay: microbe, parasite or virus in culture; format: cell-based; details: A488, 24 h
[2] = test system: Staphylococcus aureus A55; assay: MIC, agar serial dilution test; format: cell-based
[3] = test system: Staphylococcus aureus L160a (penicillinase-producing); assay: MIC, agar serial dilution test; details: 24 h
[4] = test system: Diplococcus pneumoniae L 54; assay: MIC, agar serial dilution test; format: cell-based; details: Streptococcus pneumoniae
[5] = test system: Klebsiella pneumoniae A809; assay: MIC, agar serial dilution test; format: cell-based
[6] = test system: Pasteurella multocida A723; assay: MIC, agar serial dilution test; format: cell-based
[7] = test system: Bacillus subtilis ATCC 6633; assay: MIC, agar serial dilution test; format: cell-based
[8] = test system: Staphylococcus aureus A355 (penicillinase-producing); assay: MIC, agar serial dilution test; details: 24 h
[9] = test system: Streptococcus haemolyticus A266; assay: MIC, agar serial dilution test; format: cell-based
[10] = test system: Streptococcus faecalis L 80; assay: MIC, agar serial dilution test; format: cell-based; details: Enterococcus faecalis
[11] = test system: Staphylococcus aureus A321; assay: MIC, agar serial dilution test; format: cell-based
[12] = Staphylococcus aureus A55, 24 hours at 37° C, read-out: MIC
[13] = L54, Diplococcus pneumoniae L 54, 24 hours at 37° C, read-out: MIC
[14] = Klebsiella pneumoniae A809, 24 hours at 37° C, read-out: MIC
[15] = Pasteurella multocida A723, 24 hours at 37° C, read-out: MIC
[16] = ATCC6633, Bacillus subtilis ATCC 6633, 24 hours at 37° C, read-out: MIC
[17] = Streptococcus haemolyticus A266, 24 hours at 37° C, read-out: MIC
[18] = L80, Streptococcus faecalis L 80, 24 hours at 37° C, read-out: MIC
[19] = Staphylococcus aureus A321, 24 hours at 37° C, read-out: MIC

Structure (SMILES) | MIC [1] | MIC [2, 12] | MIC [3] | MIC [4, 13] | MIC [5, 14] | MIC [6, 15] | MIC [7, 16] | MIC [8] | MIC [9, 17] | MIC [10, 18] | MIC [11, 19] | MIC ([2]; Staphylococcus aureus, A55, 24 h) | MIC ([4]; L54, 24 h) | MIC ([5]; Klebsiella pneumoniae, A809, 24 h) | MIC ([6]; Pasteurella multocida, A723, 24 h) | MIC ([7]; Bacillus subtilis, ATCC6633, 24 h) | MIC ([9]; Streptococcus, A266, 24 h) | MIC ([10]; L80, 24 h) | MIC ([11]; Staphylococcus aureus, A321, 24 h)
CC1=C(C(=O)O)N2C(=O)C(NC(=O)Cc3onc(-c4c(Cl)cccc4Cl)c3C)C2SC1 (centres unmarked) [VIII, 7-{[3-(2,6-dichloro)phenyl-4-methyl-isoxazol-5-yl]acetamidodesacetoxycephalosporanic}acid] | 12.5 µg/mL (≈ 25.9 µM) | 1.5 µg/mL (≈ 3.11 µM) | 3 µg/mL (≈ 6.22 µM) | 1 µg/mL (≈ 2.07 µM) | > 100 µg/mL | 100 µg/mL (≈ 207 µM) | 0.25 µg/mL (≈ 0.518 µM) | 3 µg/mL (≈ 6.22 µM) | 0.25 µg/mL (≈ 0.518 µM) | 100 µg/mL (≈ 207 µM) | 0.5 µg/mL (≈ 1.04 µM) | – | – | – | – | – | – | – | –
Cc1cc(CC(=O)NC2C(=O)N3[C@@H]2SC(C)(C)[C@@H]3C(=O)O)on1 (some centres unmarked) [Example XXI, 6-{[3-methyl-isoxazol-5-yl]acetamido}penicillanic acid] | 3 µg/mL (≈ 8.84 µM) | 0.5 µg/mL (≈ 1.47 µM) | 3 µg/mL (≈ 8.84 µM) | 1.5 µg/mL (≈ 4.42 µM) | > 100 µg/mL | 1.5 µg/mL (≈ 4.42 µM) | 0.06 µg/mL (≈ 0.177 µM) | 6 µg/mL (≈ 17.7 µM) | 0.03 µg/mL (≈ 0.0884 µM) | 3 µg/mL (≈ 8.84 µM) | 0.25 µg/mL (≈ 0.737 µM) | – | – | – | – | – | – | – | –
CC(=O)OCC1=C(C(=O)O)N2C(=O)C(NC(=O)Cc3cc(C(C)(C)C)no3)C2SC1 (centres unmarked) [XXXIV, sodium 7-[3-(t-butyl)isoxazole-5-ylacetamido]-3-acetoxymethyl 3-cephem-4-carboxylate] | – | – | – | 0.25 µg/mL | 12.5 µg/mL | 3 µg/mL | 0.75 µg/mL | 1.5 µg/mL | – | 12.5 µg/mL | 1.5 µg/mL | – | – | – | – | – | – | – | –
Cc1c(-c2c(Cl)cccc2Cl)noc1CC(=O)NC1C(=O)N2C1SC(C)(C)C2C(=O)O (centres unmarked) [Example X, Sodium salt of 6-{[3-(2,6-dichloro)phenyl-4-methyl-isoxazol-5-yl]acetamido}penicillanic acid] | 3 µg/mL | 0.03 µg/mL | 0.5 µg/mL | 0.02 µg/mL | > 100 µg/mL | 3 µg/mL | 0.005 µg/mL | 3 µg/mL | 0.006 µg/mL | 0.25 µg/mL | 0.03 µg/mL | – | – | – | – | – | – | – | –
Cc1onc(-c2ccccc2Cl)c1C(=O)N[C@@H]1C(=O)N2[C@@H]1SC(C)(C)[C@@H]2C(=O)O [Cloxazilline, Cloxacillin, reference compound] | 100 µg/mL (≈ 229 µM) | 0.12 µg/mL (≈ 0.275 µM) | 1 µg/mL (≈ 2.29 µM) | 1.5 µg/mL (≈ 3.44 µM) | 6 µg/mL (≈ 13.8 µM) | 6 µg/mL (≈ 13.8 µM) | 0.25 µg/mL (≈ 0.574 µM) | 0.5 µg/mL (≈ 1.15 µM) | 0.25 µg/mL (≈ 0.574 µM) | 25 µg/mL (≈ 57.4 µM) | 0.06 µg/mL (≈ 0.138 µM) | – | – | – | – | – | – | – | –
O=C(Cc1cccs1)N[C@@H]1C(=O)N2C(C(=O)[O-])=C(C[n+]3ccccc3)CS[C@H]12 [Cephaloridine, Cephaloridin, reference compound] | 3 µg/mL (≈ 7.22 µM) | – | 0.06 µg/mL (≈ 0.144 µM) | – | – | – | – | 0.12 µg/mL (≈ 0.289 µM) | – | – | – | 0.06 µg/mL (≈ 0.144 µM) | 0.015 µg/mL (≈ 0.0361 µM) | 3 µg/mL (≈ 7.22 µM) | 1 µg/mL (≈ 2.41 µM) | 0.06 µg/mL (≈ 0.144 µM) | 0.015 µg/mL (≈ 0.0361 µM) | 12.5 µg/mL (≈ 30.1 µM) | 0.06 µg/mL (≈ 0.144 µM)
CC1=C(C(=O)O)N2C(=O)C(NC(=O)Cc3onc(-c4c(C)cc(C)cc4C)c3C)C2SC1 (centres unmarked) [XIII, Sodium salt of 7-{[3-(2,4,6-trimethyl)phenyl-4-phenyl-methyl-isoxazol-5-yl]acetamido}desacetoxycephalosporanic acid] | > 100 µg/mL | 3 µg/mL | 6 µg/mL | 1.5 µg/mL | > 100 µg/mL | > 100 µg/mL | 1 µg/mL | 6 µg/mL | 0.6 µg/mL | 100 µg/mL | 1.5 µg/mL | – | – | – | – | – | – | – | –
CC1(C)SC2C(NC(=O)C(NC(=O)OCc3ccc([N+](=O)[O-])cc3)c3cc(-c4c(Cl)cccc4Cl)no3)C(=O)N2C1C(=O)O (stereo not drawn) [Example XVII, 6-{-α-p-nitro-benzyloxycarbonylamino-[3-(2,6-dichloro)phenylisoxazol-5-yl]acetamido}penicillanic acid] | 25 µg/mL (≈ 37.6 µM) | 1 µg/mL (≈ 1.5 µM) | 6 µg/mL (≈ 9.03 µM) | 0.5 µg/mL (≈ 0.752 µM) | > 100 µg/mL | 50 µg/mL (≈ 75.2 µM) | 0.5 µg/mL (≈ 0.752 µM) | 12.5 µg/mL (≈ 18.8 µM) | 0.06 µg/mL (≈ 0.0903 µM) | 3 µg/mL (≈ 4.51 µM) | 1 µg/mL (≈ 1.5 µM) | – | – | – | – | – | – | – | –
CCOc1ccc2ccccc2c1C(=O)N[C@@H]1C(=O)N2[C@@H]1SC(C)(C)[C@@H]2C(=O)O [Nafcilline, Nafcillin, reference compound] | 6 µg/mL (≈ 14.5 µM) | 0.12 µg/mL (≈ 0.29 µM) | 0.5 µg/mL (≈ 1.21 µM) | 0.06 µg/mL (≈ 0.145 µM) | 12.5 µg/mL (≈ 30.2 µM) | 12.5 µg/mL (≈ 30.2 µM) | 0.5 µg/mL (≈ 1.21 µM) | 1 µg/mL (≈ 2.41 µM) | 0.015 µg/mL (≈ 0.0362 µM) | 10 µg/mL (≈ 24.1 µM) | 0.25 µg/mL (≈ 0.603 µM) | – | – | – | – | – | – | – | –
